From PubChem BioAssay (NCI)
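Each compound was tested at five concentrations against cells in 96-well plates for 48 hours. TGI denotes the concentration required for complete inhibition of growth.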

Key:
Assay in all cases: NCI anticancer screen, dose series, 48 h
OVCAR-5 ovarian = system: OVCAR-5 ovarian
MDA-MB-435 = system: MDA-MB-435
MDA-N = system: MDA-N
SK-MEL-5 melanoma = system: SK-MEL-5 melanoma
SK-MEL-2 melanoma = system: SK-MEL-2 melanoma
UO-31 renal = system: UO-31 renal
HOP-92 NSCLC = system: HOP-92 NSCLC
OVCAR-3 ovarian = system: OVCAR-3 ovarian
LOX IMVI melanoma = system: LOX IMVI melanoma
PC-3 prostate = system: PC-3 prostate
EKVX NSCLC = system: EKVX NSCLC
NCI-H226 lung = system: NCI-H226 lung
HOP-62 NSCLC = system: HOP-62 NSCLC
786-0 renal = system: 786-0 renal
ACHN renal = system: ACHN renal
HL-60(TB) leukemia = system: HL-60(TB) leukemia
NCI/ADR-RES ovarian = system: NCI/ADR-RES ovarian
COLO 205 colon = system: COLO 205 colon
CAKI-1 renal = system: CAKI-1 renal
TK-10 renal = system: TK-10 renal
MOLT-4 leukemia = system: MOLT-4 leukemia
K-562 leukemia = system: K-562 leukemia
IGROV1 ovarian = system: IGROV1 ovarian
A549 NSCLC = system: A549 NSCLC
MDA-MB-231 breast = system: MDA-MB-231 breast
UACC-257 melanoma = system: UACC-257 melanoma
SK-MEL-28 melanoma = system: SK-MEL-28 melanoma
SW-620 colon = system: SW-620 colon
HCT-15 colon = system: HCT-15 colon
M14 melanoma = system: M14 melanoma
KM12 colon = system: KM12 colon
OVCAR-8 ovarian = system: OVCAR-8 ovarian
SF-539 CNS = system: SF-539 CNS
OVCAR-4 ovarian = system: OVCAR-4 ovarian
NCI-H460 lung = system: NCI-H460 lung
SF-295 CNS = system: SF-295 CNS
DU-145 prostate = system: DU-145 prostate
RXF 393 renal = system: RXF 393 renal
HT29 colon = system: HT29 colon
A498 renal = system: A498 renal
HCT-116 colon = system: HCT-116 colon
CCRF-CEM leukemia = system: CCRF-CEM leukemia
SNB-19 CNS = system: SNB-19 CNS
MCF7 breast = system: MCF7 breast
NCI-H23 lung = system: NCI-H23 lung
SN12C renal = system: SN12C renal
BT-549 breast = system: BT-549 breast
U251 CNS = system: U251 CNS
SK-OV-3 ovarian = system: SK-OV-3 ovarian
SNB-75 CNS = system: SNB-75 CNS
T-47D breast = system: T-47D breast
HCC-2998 colon = system: HCC-2998 colon
SF-268 CNS = system: SF-268 CNS
UACC-62 melanoma = system: UACC-62 melanoma

Measured: TGI

C(CCCCc1nnc(N2CCOCC2)o1)CCCc1nnc(N2CCOCC2)o1
not listed: T-47D breast | HCC-2998 colon | SF-268 CNS | UACC-62 melanoma
> 100 µM: all other assays above

CC(=O)/C(=C/n1ccc(=O)[nH]c1=S)C(=O)Nc1ccccc1C
not listed: PC-3 prostate | MOLT-4 leukemia | K-562 leukemia | CCRF-CEM leukemia
> 100 µM: all other assays above
